This is an account of results in ChEMBL document CHEMBL5653615 (J Biol Chem, 2013).

Activity calls are given as the source filed them. The rule behind the calls is not given here.

A short description of assay [1]: Inhibition of tri-phosphorylated human Insulin receptor (978 to 1283 residues) C981S mutant kinase domain expressed in baculovirus infected Sf9 cells incubated for 1 hr by [gamma-33P]ATP assay.
Assay [2] concerns the target T1, Serine/threonine-protein kinase NLK (Homo sapiens) (UniProt Q9UBE8).
T1 sequence (whole entry): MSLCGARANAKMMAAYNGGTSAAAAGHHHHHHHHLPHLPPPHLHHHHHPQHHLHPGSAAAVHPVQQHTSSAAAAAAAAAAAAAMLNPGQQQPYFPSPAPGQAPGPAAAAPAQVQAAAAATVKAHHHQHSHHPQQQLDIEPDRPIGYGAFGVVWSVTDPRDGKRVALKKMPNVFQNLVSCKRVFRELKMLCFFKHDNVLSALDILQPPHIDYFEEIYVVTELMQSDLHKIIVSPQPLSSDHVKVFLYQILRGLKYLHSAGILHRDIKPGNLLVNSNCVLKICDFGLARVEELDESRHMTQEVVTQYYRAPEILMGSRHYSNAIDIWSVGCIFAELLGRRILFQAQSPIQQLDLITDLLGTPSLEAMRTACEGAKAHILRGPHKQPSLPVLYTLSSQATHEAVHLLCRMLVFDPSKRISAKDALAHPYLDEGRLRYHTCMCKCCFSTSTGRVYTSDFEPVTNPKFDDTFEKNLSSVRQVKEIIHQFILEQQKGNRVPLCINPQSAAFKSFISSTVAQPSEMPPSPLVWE
Description: Inhibition of human NLK at 18.6 nM by HotSpot assay relative to control.

Assay [3] has as its target Serine/threonine-protein kinase MARK1 (Homo sapiens) (UniProt Q9P0L2). The assay is described as follows: Inhibition of human MARK1 at 18.6 nM by HotSpot assay relative to control.
In assay [4] the target is G protein-coupled receptor kinase 4 (Homo sapiens) (UniProt P32298). Description: Inhibition of human GRK4 at 18.6 nM by HotSpot assay relative to control.
Assay [5] deals with Serine/threonine-protein kinase WNK3 (Homo sapiens) (UniProt Q9BYP7). The assay is described as follows: Inhibition of human WNK3 at 18.6 nM by HotSpot assay relative to control.
Serine/threonine-protein kinase WNK3 (Homo sapiens), sequence (Q9BYP7 whole entry): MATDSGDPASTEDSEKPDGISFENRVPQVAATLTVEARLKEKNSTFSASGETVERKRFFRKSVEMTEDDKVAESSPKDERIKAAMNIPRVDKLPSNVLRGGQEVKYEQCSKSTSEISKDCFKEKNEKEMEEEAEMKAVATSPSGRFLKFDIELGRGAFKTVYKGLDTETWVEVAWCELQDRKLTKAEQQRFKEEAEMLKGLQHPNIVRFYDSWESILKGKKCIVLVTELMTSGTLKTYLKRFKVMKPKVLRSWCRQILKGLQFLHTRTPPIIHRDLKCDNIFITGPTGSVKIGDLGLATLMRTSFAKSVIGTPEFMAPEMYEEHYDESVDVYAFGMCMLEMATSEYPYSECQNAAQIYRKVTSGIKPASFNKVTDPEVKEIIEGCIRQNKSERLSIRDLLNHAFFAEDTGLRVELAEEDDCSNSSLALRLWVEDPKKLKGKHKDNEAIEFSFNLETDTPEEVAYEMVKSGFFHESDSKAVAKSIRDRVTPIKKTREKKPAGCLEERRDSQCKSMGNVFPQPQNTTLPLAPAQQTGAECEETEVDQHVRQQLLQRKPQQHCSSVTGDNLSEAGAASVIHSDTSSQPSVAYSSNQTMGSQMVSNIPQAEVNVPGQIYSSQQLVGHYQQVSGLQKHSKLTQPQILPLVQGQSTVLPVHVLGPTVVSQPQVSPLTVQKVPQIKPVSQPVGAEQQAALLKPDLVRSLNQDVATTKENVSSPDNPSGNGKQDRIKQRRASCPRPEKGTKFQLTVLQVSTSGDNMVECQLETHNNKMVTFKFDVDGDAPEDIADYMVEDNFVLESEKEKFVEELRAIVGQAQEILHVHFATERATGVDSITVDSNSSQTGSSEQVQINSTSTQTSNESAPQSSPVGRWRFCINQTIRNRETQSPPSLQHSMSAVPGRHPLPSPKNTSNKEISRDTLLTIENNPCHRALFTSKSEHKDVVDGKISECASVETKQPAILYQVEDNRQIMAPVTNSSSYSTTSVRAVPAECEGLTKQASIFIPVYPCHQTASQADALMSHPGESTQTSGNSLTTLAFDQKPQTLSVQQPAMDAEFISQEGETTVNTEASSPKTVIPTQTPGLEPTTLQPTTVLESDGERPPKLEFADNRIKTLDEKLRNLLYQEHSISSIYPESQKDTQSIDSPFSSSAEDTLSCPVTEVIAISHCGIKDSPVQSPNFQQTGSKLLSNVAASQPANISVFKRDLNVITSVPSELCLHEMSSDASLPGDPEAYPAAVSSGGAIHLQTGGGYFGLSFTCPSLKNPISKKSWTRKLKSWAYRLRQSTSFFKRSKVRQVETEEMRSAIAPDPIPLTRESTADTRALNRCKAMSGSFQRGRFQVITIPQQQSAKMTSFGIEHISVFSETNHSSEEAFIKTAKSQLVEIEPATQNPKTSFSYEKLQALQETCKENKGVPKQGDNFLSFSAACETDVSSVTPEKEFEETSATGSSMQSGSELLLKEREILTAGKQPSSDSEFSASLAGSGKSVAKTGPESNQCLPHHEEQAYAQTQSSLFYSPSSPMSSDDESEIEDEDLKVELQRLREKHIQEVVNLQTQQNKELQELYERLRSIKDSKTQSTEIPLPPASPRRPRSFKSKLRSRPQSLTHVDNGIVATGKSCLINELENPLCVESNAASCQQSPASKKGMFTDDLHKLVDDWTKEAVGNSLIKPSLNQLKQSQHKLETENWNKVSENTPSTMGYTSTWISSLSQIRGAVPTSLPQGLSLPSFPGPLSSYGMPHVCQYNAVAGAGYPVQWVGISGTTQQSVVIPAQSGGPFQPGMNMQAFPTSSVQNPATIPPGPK
Assay [6] addresses Tyrosine-protein kinase JAK1 (Homo sapiens) (UniProt P23458). Description: Inhibition of human JAK1 at 18.6 nM by HotSpot assay relative to control.
The target of assay [7] is Serine/threonine-protein kinase 25 (Homo sapiens) (UniProt O00506). Description: Inhibition of human YSK1 at 18.6 nM by HotSpot assay relative to control.
Serine/threonine-protein kinase 25 (Homo sapiens), sequence (O00506 whole entry, looked up): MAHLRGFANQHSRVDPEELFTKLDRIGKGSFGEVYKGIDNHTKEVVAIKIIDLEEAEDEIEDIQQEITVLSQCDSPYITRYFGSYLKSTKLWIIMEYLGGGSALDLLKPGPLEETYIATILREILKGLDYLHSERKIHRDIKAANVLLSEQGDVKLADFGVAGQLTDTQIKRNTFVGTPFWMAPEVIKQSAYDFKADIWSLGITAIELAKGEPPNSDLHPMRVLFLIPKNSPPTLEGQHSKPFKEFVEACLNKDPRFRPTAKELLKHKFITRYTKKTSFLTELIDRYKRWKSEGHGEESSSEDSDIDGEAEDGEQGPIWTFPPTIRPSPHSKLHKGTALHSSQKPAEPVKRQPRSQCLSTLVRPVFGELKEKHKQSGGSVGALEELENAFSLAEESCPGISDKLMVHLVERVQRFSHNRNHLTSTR
The target of assay [8] is Death-associated protein kinase 2 (Homo sapiens) (UniProt Q9UIK4). The assay is described as follows: Inhibition of human DAPK2 at 18.6 nM by HotSpot assay relative to control.
Death-associated protein kinase 2 (Homo sapiens), sequence (Q9UIK4 whole entry, looked up): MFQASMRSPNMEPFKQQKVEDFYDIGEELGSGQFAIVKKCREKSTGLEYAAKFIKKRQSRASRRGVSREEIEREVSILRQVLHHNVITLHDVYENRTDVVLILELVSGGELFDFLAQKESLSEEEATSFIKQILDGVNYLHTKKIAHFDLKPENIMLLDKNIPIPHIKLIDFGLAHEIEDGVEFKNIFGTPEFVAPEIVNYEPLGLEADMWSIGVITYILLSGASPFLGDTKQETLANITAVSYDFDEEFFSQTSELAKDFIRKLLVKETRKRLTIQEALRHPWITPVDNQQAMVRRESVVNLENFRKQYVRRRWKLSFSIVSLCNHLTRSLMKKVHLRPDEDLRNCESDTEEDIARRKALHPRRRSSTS
For assay [9], the target named is T2, Dual serine/threonine and tyrosine protein kinase (Homo sapiens) (UniProt Q6XUX3).
T2 sequence (whole entry): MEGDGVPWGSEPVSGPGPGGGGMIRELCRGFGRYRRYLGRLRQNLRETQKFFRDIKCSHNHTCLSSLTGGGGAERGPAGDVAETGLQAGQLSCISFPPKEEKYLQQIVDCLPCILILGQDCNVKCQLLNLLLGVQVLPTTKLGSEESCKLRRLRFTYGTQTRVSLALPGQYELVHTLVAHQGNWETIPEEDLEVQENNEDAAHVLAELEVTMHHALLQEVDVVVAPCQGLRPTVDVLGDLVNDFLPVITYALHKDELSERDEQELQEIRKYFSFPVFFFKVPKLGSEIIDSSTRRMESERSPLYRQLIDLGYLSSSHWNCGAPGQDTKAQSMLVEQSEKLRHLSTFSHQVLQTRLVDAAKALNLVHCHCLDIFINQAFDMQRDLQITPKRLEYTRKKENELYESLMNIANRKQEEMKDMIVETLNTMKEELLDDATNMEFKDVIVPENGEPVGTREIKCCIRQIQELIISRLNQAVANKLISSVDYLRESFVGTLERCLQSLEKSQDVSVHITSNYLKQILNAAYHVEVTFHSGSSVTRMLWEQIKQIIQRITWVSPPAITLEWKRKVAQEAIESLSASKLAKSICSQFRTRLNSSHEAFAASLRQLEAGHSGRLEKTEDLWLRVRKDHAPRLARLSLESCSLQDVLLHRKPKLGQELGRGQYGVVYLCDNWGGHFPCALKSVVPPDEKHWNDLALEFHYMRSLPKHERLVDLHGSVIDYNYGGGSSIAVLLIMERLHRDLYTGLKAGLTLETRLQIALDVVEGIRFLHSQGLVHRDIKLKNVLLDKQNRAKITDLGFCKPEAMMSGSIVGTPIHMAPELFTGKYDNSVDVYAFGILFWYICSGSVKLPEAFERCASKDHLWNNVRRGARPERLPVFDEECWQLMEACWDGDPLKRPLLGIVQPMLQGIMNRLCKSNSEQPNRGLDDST
Description: Inhibition of human RIPK5 at 1.82 nM by HotSpot assay relative to control.

Assay [10] concerns the target Mitogen-activated protein kinase kinase kinase kinase 5 (Homo sapiens) (UniProt Q9Y4K4). The assay is described as follows: Inhibition of human KHS at 1.82 nM by HotSpot assay relative to control.
The target in assay [11] is Receptor tyrosine-protein kinase erbB-2 (Homo sapiens) (UniProt P04626). The assay is described as follows: Inhibition of human ERBB2 at 1.82 nM by HotSpot assay relative to control.

Tyrosine-protein kinase JAK1 (Homo sapiens), sequence (P23458 whole entry): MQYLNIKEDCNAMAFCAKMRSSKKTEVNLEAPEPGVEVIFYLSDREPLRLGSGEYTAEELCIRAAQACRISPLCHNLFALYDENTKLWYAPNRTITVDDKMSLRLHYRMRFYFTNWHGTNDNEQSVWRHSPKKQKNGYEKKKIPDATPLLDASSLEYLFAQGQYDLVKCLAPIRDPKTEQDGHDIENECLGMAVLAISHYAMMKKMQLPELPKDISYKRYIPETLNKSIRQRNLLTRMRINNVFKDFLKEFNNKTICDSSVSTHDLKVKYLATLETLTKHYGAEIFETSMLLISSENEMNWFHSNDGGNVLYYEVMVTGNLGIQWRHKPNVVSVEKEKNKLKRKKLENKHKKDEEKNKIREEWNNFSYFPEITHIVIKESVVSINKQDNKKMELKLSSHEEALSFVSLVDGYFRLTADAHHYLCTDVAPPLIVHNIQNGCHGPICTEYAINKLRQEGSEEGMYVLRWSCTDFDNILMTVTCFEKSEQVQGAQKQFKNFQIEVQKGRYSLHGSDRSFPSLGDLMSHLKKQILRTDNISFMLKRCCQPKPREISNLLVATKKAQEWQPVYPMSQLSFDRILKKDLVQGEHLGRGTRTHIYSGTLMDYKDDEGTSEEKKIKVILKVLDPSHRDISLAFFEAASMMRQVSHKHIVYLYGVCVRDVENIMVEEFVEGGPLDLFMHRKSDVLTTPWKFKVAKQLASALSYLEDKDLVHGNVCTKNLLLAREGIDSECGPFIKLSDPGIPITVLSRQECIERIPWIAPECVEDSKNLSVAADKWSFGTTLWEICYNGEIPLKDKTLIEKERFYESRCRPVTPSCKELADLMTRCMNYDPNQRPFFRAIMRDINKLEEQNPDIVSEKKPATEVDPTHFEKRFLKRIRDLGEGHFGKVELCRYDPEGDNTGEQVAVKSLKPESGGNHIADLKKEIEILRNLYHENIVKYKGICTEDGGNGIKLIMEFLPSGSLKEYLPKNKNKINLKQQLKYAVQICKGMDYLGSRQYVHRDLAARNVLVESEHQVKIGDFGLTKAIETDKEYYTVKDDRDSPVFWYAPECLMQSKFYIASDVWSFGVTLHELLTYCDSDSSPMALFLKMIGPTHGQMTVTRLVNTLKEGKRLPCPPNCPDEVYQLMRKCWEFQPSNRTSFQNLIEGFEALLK
Serine/threonine-protein kinase MARK1 (Homo sapiens), sequence (Q9P0L2 whole entry, looked up): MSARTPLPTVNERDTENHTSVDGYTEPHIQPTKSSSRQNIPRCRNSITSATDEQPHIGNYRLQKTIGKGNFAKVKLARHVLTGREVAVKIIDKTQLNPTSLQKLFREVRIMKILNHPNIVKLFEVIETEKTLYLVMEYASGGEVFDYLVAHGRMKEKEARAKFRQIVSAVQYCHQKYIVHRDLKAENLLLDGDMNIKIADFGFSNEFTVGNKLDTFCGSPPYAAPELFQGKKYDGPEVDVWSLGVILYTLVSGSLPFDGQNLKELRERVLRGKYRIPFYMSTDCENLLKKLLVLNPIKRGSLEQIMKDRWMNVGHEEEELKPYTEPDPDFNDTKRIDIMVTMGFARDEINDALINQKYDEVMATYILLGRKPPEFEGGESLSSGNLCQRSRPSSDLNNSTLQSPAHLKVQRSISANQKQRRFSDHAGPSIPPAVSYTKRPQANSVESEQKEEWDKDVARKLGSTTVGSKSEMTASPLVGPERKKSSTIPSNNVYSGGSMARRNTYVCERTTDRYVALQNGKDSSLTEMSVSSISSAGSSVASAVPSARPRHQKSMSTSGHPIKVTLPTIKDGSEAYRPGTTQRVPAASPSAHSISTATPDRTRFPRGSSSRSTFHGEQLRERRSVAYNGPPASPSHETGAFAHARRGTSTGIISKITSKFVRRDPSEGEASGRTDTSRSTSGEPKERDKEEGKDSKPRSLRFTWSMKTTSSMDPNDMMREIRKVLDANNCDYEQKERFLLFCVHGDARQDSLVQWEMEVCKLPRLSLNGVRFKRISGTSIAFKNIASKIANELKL

Consider `Oc1n[nH]c2nnc(-c3c(-c4ccccc4)nn4ccccc34)cc12`, for which, in assay [1], the inhibition result was “inactive”.
Take `C[C@]1(O)C[C@@H](c2nc(-c3ccc4ccc(-c5ccccc5)nc4c3)c3c(N)nccn32)C1`: the inhibition in assay [2] is -1.35%; in [3], -7.27%; in assay [4], 5.49%; in [5] it was 6.05%; in assay [6], -9.75%; in [7], -3.04%. In [8], the inhibition is 0.74%.
With `C[C@@]1(C(=O)Nc2ccc(F)nc2)CCCN1c1nc(Nc2cc(C3CC3)n[nH]2)c2cccn2n1`, the inhibition is 4.61% in [9], -3.57% in [10] and 5.5% in assay [11].

One may read the inhibition as the relative decrease from the control value, in per cent.
